Experimental data taken from US6117840A, “CS-1 peptidomimetics, compositions and methods of using the same” (Cytel Corporation, priority 1997, dated 2000).
Square brackets hold non-standard residues; d marks the D form. Peptide text beside a SMILES is read from it. * marks the point of attachment. PhAc = O=C(Cc1ccccc1)*

Tests used:
SJL/J mice = experiment: Experimental autoimmune encephalomyelitis in mice; assay type: in vivo; conditions: 1 mg/mouse i.p. at days 8 and 9; versus scrambled control peptide
Protocol: EAE was induced in female SJL/J mice (8 to 14 weeks old) by immunization on day zero with 50 μg of a peptide corresponding to positions 139-151 of PLP emulsified in a 1:1 mixture of PBS and complete Freund's adjuvant (CFA). Each mouse was injected with 0.2 ml of the adjuvant emulsion subcutaneously (s.c.) at two sites in the hind flank. All mice received 10^7 killed Bordetella pertussis units in 100 μl were injected intravenously 24 to 72 hours later.
Mice were observed daily, beginning at day 8 for clinical signs of EAE, and disease was scored on a scale of 0-5 as: 0=no disease; 1=floppy tail; 2=moderate hind limb weakness; 3=paraparesis; 4=paraplegis with moderate forelimb weakness; 5=qualdriplegis or premoribund state.
The inhibitor peptide N--phenylacetyl--Leu--Asp--Phe--D--Pro--NH2 was administered intraperitoneally at 1 mg/mouse in 0.2 ml of incomplete Freund's adjuvant at days 8 and 9. A peptide having a scrambled sequence [N--phenylacetyl--Asp--Leu--Phe--D--Pro--NH2 ] was similarly administered to serve as a control.
Summed or averaged scores for clinical signs were plotted vs. time. The area under the resulting curves was calculated between day 8 and day 35 to calculate percentage inhibition of EAE by an inhibitor peptide. The percent inhibition was calculated as follows: [formula]

[1] = system: New Zealand white rabbits; experiment: Rabbit cardiac allograft model; assay type: in vivo; conditions: for Expression on Coronary Arteries: ICAM-1 / Expression on Coronary Arteries: Macrophages / Expression on Coronary Arteries: T cells / Expression on Coronary Arteries: Total Fibronectin / Expression on Coronary Arteries: VCAM-1 / Vessel Intimal Thickening: Percent of Vessels / Vessel Intimal Thickening: Severity (Percent of Vessel area) / Expression on Coronary Arteries: MHC Class II: 1 mg/kg s.c., donor heart; for Expression on Coronary Arteries: MHC Class II: 7 to 8 days; for Expression on Coronary Arteries: ICAM-1: key: -: negative; ±: minimal; +: little; ++: moderately abundant; +++: very abundant; for Expression on Coronary Arteries: Macrophages: key: -: negative; ±: minimal; +: little; ++: moderately abundant; +++: very abundant; for Expression on Coronary Arteries: T cells: key: -: negative; ±: minimal; +: little; ++: moderately abundant; +++: very abundant; for Expression on Coronary Arteries: Total Fibronectin: key: -: negative; ±: minimal; +: little; ++: moderately abundant; +++: very abundant
From the text: New Zealand white female rabbits (Charles River Lab., Saint Laurent, Quebec), between 3.5 and 4 kg underwent heterotopic cardiac transplant following an experimental protocol previously described [Alonso et al., Am. J. Pathol., 87:415-442 (1977); Clausell et al., Circulation, 89:2768-2779 (1994)] and approved by the Animal Care Committee of The Hospital for Sick Children, Toronto. The animals were […] to favor an HLA-mismatch, the host rabbits were Pasteurella-free and the donors, outbred animals. Both host and donor rabbits were fed Purina 5321-0.5 percent cholesterol diet (Research Diets Inc., New Brunswick, N.J.), a strategy that has proven useful in accelerating the process of allograft arteriopathy [Alonso et al., Am. J. Pathol., 87:415-442 (1977)]. The diet was commenced four days prior to the transplant and continued in the recipient of the transplant until the completion of the experimental period.
The technique of heterotopic cardiac transplantation has been previously described [Clausell et al., Circulation, 89:2768-2779 (1994)]. Briefly, a vertical incision was performed in the anterior aspect of the neck of the recipient rabbit and the left common carotid artery and the ipsilateral external jugular vein were isolated. The cardiac allograft was placed in the neck by anastomosing the aorta end-to-side to the recipient's carotid artery and the pulmonary end-to-side to the recipient's external jugular vein, following a total period of ischemia for the donor hearts of approximately 30 minutes. Postoperative care was in compliance with the Principles of Laboratory Animal Care formulated by the Canadian National Society for Medical Research.
Beginning the day of the transplant, the animals were randomized and treated with either scrambled peptide (control group) at 1 mg/kg s.c. or the inhibitor peptide at 1 mg/kg s.c. The doses of the peptides were empirically extrapolated to the in vivo model based on preliminary in vitro studies, of Table 1. No other immunosuppression therapy was administered. The grafts were monitored daily by palpation and maintained for 7 to 8 days, a previously described endpoint that was associated with myocardial rejection (impaired cardiac contractility) and development of the allograft arteriopathy in this model [Clausell et al., Circulation, 89:2768-2779 (1994)]. A total of fourteen animals were studied in the control (n=7) and treated (n=7) groups.
The animals were sacrificed using a lethal dose of euthanol (480 mg i.v.) (MTC Pharmaceutical, Cambridge, ON), host and donor hearts were removed, and the coronary arteries were perfused with saline through the aorta, followed by light fixation by perfusion with 2 percent paraformaldehyde (Sigma, St, Louis, Mo.). […] Different sections of the hearts were either saved in 10 percent formalin (BDH Inc., Toronto, ON) for light microscopy studies or immediately frozen in O.T.C. Compound Tissue Tek (Miles Inc., Elkart, Ind.) for specific immunohistochemistry studies.
Three different paraffin-embedded tissue sections from host and donor hearts from both control and treated rabbits were stained by the Movat pentachrome method for light microscopy. Morphometric analysis was performed using a Zeiss microscope attached to a computer-generated video analysis system (Perceptics Inc., NuVision software), as described in Clausell et al., Circulation, 89:2768-2779 (1994). The number of vessels with intimal lesions were counted in all three heart sections from each animal studied and are expressed as a percentage of the total vessel number.
In the host hearts, 999 vessels in the control group and 1054 vessels in the treated group were analyzed. In the donor hearts, 827 vessels in the control group and 617 vessels in the treated group were analyzed. […]

Row | SMILES | clinical signs of EAE (SJL/J mice) | Expression on Coronary Arteries: ICAM-1 [1] | Expression on Coronary Arteries: Macrophages [1] | Expression on Coronary Arteries: T cells [1] | Expression on Coronary Arteries: Total Fibronectin [1] | Expression on Coronary Arteries: VCAM-1 [1] | Vessel Intimal Thickening: Percent of Vessels [1] [%] | Vessel Intimal Thickening: Severity (Percent of Vessel area) [1] [%] | Expression on Coronary Arteries: MHC Class II [1] | Baseline (rabbit own host heart) of incidence [1] [%] | Baseline (rabbit own host heart) of severity [1] [%]
1 | CC(C)C[C@H](NC(=O)Cc1ccccc1)C(=O)N[C@@H](CC(=O)O)C(=O)N[C@@H](Cc1ccccc1)C(=O)N1CCC[C@@H]1C(N)=O [X L D F p phenylacetyl amide, N--phenylacetyl--Leu--Asp--Phe--D--Pro--NH2] (PhAc-LDF[dP]-NH2) | marked improvement in clinical signs | ± | ± | ± | ± | ± | 35 | 16 | ± | 12 | 12
2 | CC(C)C[C@H](NC(=O)[C@H](CC(=O)O)NC(=O)Cc1ccccc1)C(=O)N[C@@H](Cc1ccccc1)C(=O)N1CCC[C@@H]1C(N)=O [X L D F p phenylacetyl amide scrambled, N--phenylacetyl--Asp--Leu--Phe--D--Pro--NH2, reference compound] (PhAc-DLF[dP]-NH2) |  | + | + | ++ | ++ | + | 88 | 36 | ++ | 1 | 12
